Results from patent US9676818B2, “Toll-like receptor 2-agonistic lipopeptides, and method of making the same” (University of Kansas, priority 2013, dated 2017).
pEC50: −log10 of the molar value. Like-named read-outs stand apart in the source and are kept apart here.

Legend:
[1] = biological target: human TLR2 (Homo sapiens (Human), UniProt O60603); experiment: human TLR2-specific NF-κB reporter gene assay (HEK-Blue cells); type: cell-based; conditions: for EC50: human TLR2-specific reporter gene assay, ND = no activity detected at 10 μM, read-out: TLR2-Agonistic Activity (EC50 in nM)
Source text: The induction of NF-κB in a TLR2-specific reporter gene assay was quantified using HEK-BLUE™ cells as previously described (Wu, W. et al., J. Med. Chem. 2010, 53, 3198-3213). HEK293 cells stably transfected with either human TLR2 or murine TLR2 and alkaline phosphatase (sAP) were obtained from InvivoGen (San Diego, Calif.), and were maintained in HEK-BLUE™ Selection medium containing zeocin and normocin. Stable expression of secreted alkaline phosphatase (sAP) under control of NF-κB promoters is inducible by TLR2 agonists, and extracellular sAP in the supernatant is proportional to NF-κB induction. HEK-Blue cells were incubated at a density of ˜10^5 cells/mL in a volume of 80 μL/well, in 384-well, flat-bottomed, cell culture-treated microtiter plates until confluency was achieved, and then stimulated with serially-diluted aliquots of compounds for 12 h. sAP was assayed spectrophoto-metrically using an alkaline phosphatase-specific chromogen (present in the HEK-detection medium as supplied by the vendor) at 620 nm. For antagonism assays, HEK-Blue cells were incubated at a density of ˜10^5 cells/mL in a volume of 80 μL/well and stimulated with either PAM2CS (1 μg/mL) or lipoteichoic acid (1 μg/mL) in the presence of graded concentrations of the test compounds as described for TLR7 previously (Shukla, N. M.; et al., Bioorg. Med. Chem. Lett. 2009, 19, 2211-2214; Shukla, N. M. et al., Bioorg. Med. Chem. 2011, 19, 3801-3811).

[2] = Aqueous solubility; type: physicochemical

Sequence of human TLR2 (O60603 21-784): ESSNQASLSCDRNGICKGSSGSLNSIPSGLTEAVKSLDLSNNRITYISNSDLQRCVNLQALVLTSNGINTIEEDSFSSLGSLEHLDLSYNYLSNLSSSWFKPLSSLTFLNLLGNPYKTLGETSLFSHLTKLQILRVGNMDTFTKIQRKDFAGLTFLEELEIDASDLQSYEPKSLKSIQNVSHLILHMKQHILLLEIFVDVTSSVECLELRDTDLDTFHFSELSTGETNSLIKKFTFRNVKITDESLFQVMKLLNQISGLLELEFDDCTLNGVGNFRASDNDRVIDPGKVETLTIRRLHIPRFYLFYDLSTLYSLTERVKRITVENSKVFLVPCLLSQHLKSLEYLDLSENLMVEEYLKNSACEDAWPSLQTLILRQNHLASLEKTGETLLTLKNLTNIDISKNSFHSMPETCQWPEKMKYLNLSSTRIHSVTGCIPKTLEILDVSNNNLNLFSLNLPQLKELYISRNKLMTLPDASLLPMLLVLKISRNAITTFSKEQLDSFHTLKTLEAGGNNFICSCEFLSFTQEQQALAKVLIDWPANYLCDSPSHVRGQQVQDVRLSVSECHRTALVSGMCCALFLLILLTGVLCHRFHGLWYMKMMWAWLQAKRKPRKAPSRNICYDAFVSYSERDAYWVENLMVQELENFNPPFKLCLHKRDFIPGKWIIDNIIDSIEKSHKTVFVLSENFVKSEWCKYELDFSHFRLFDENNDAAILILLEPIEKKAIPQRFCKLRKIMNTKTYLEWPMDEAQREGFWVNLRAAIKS

Row | Compound | EC50 [1] | hTLR2-agonistic activity in words ([1]; hTLR2 reporter gene assay) | other results
1 | CCCCCCCCCCCCCCCC(=O)OCCSC[C@H](NC(C)=O)C(=O)N[C@@H](COS(=O)(=O)O)C(=O)OC [Compound 26, 2-(((R)-2-Acetamido-3-(((S)-1-methoxy-1-oxo-3-(sulfooxy)propan-2-yl)amino)-3-oxopropyl)thio)ethyl palmitate] | 7.1 nM | – | water solubility [2]: exceptionally water soluble
2 | CCCCCCCCCCCCCCCC(=O)OCCSC[C@H](NC(C)=O)C(=O)N[C@@H](COC(=O)CCC(=O)O)C(=O)OC [Compound 27, (7S,10R)-10-Acetamido-7-(methoxycarbonyl)-4,9,16-trioxo-5,15-dioxa-12-thia-8-azahentriacontan-1-oic acid] | 0.518 nM | – | water solubility [2]: exceptionally water soluble
3 | CCCCCCCCCCCCCc1cn(CCSC[C@H](NC(C)=O)C(=O)N[C@@H](CO)C(=O)OC)nn1 [Compound 41, (S)-Methyl 2-((R)-2-acetamido-3-((2-(4-tridecyl-1H-1,2,3-triazol-1-yl)ethyl)thio)propanamido)-3-hydroxypropanoate] | 260 nM | – | –
4 | CCCCCCCCCCCCCCCC(=O)NCCSC[C@H](NC(C)=O)C(=O)N[C@@H](CO)C(=O)OC [Compound 34, (S)-Methyl 2-((R)-2-acetamido-3-((2-palmitamidoethyl)thio)propanamido)-3-hydroxypropanoate] | 11.8 nM | – | –
5 | CCCCCCCCCCCCCCCC(=O)OCCSC[C@H](NS(=O)(=O)C(F)(F)F)C(=O)N[C@@H](CO)C(=O)OC [Compound 11k, 2-(((R)-3-(((S)-3-hydroxy-1-methoxy-1-oxopropan-2-yl)amino)-3-oxo-2-(trifluoromethyl-sulfonamido)propyl)thio)ethyl palmitate] | > 10000 nM | inactive | –
6 | CCCCCCCCCCCCCCCCNC(=O)OCCSC[C@H](NC(C)=O)C(=O)N[C@@H](CO)C(=O)OC [Compound 45, (2S,5R)-Methyl 5-acetamido-2-(hydroxymethyl)-4,11-dioxo-10-oxa-7-thia-3,12-diazaoctacosan-1-oate] | 0.323 nM | – | –
7 | CCCCCCCCCCCCCCCC(=O)OCCSC[C@H](NS(=O)(=O)c1ccc(C)cc1)C(=O)N[C@@H](CO)C(=O)OC [Compound 11l, 2-(((R)-3-(((S)-3-hydroxy-1-methoxy-1-oxopropan-2-yl)amino)-2-(4-methylphenylsulfonamido)-3-oxopropyl)thio)ethyl palmitate] | > 10000 nM | inactive | –
8 | CCCCCCCCCCCCCCCC(=O)OCCSC[C@H](NC(=O)C(F)(F)F)C(=O)N[C@@H](CO)C(=O)OC [Compound 11h, 2-(((R)-3-(((S)-3-hydroxy-1-methoxy-1-oxopropan-2-yl)amino)-3-oxo-2-(2,2,2-trifluoro-acetamido)propyl)thio)ethyl palmitate] | – | – | absolute magnitude of TLR2-induced NF-κB activation ([1]; hTLR2, FIG. 1): low magnitude; pEC50 ([1]; hTLR2 reporter gene assay, read-out: EC50 in engaging hTLR2): 8.35
9 | CCCCCCCCCCCCCCCC(=O)OCCCSC[C@H](N)C(=O)N[C@@H](CO)C(=O)OC [Compound 15, 3-((R)-2-amino-3-((S)-3-hydroxy-1-methoxy-1-oxopropan-2-ylamino)-3-oxopropylthio)propyl palmitate] | > 10000 nM | inactive | –
10 | CCCCCCCCCCC[C@H](CC(=O)OCCSC[C@H](NC(C)=O)C(=O)N[C@@H](CO)C(=O)OC)OC=O [Compound 66] | 0.808 nM | – | –
11 | CCCCCCCCCCCCCCCCN[C@@H](CSCCOC(=O)CCCCCCCCCCCCCCC)C(=O)N[C@@H](CO)C(=O)OC [Compound 11c, 2-(((R)-2-(hexadecylamino)-3-(((S)-3-hydroxy-1-methoxy-1-oxopropan-2-yl)amino)-3-oxopropyl)thio)ethyl palmitate] | > 10000 nM | inactive | –
12 | CCCCCCCCCCC[C@H](CC(=O)OCCSC[C@H](NC(C)=O)C(=O)N[C@@H](CO)C(=O)OC)OC(=O)CCCCC [Compound 84] | 1.5 nM | – | –
